Laboratory results published in article PMC7521880 (European Journal of Medicinal Chemistry, 2020).

Test system: varicella-zoster virus (VZV, TK+ Oka strain)
Type: cell-based
Conditions: VZV in HEL cells; strain not specified

Compound	Selectivity index (SI), ratio CC50 for HEL cells / EC50
CCCCCc1ccc(-c2oc3nc(=O)n([C@H]4C[C@H](OC(C)=O)[C@@H](COC(C)=O)O4)cc3c2C#CCO)cc1 [Compound 7a, 3-(3′,5′-di-O-acetyl-2′-deoxy-β-D-ribofuranosyl)-5-(3-hydroxyprop-1-yn-1-yl)-6-(4-pentylphenyl)-2,3-dihydrofuro[2,3-d]pyrimidin-2-one]	≤ 1
CC(=O)OC[C@H]1O[C@@H](n2cc3c(C#CC4(O)c5ccccc5-c5ccccc54)c(-c4ccc(C)cc4)oc3nc2=O)C[C@@H]1OC(C)=O [Compound 6c, 3-(3′,5′-di-O-acetyl-2′-deoxy-β-D-ribofuranosyl)-5-((9-hydroxy-9H-fluoren-9-yl)ethynyl)-6-(4-methylphenyl)-2,3-dihydrofuro[2,3-d]pyrimidin-2-one]	≤ 1
CC(=O)OC[C@H]1O[C@@H](n2cc3c(C#Cc4ccc(C)cc4)c(-c4ccc(C)cc4)oc3nc2=O)C[C@@H]1OC(C)=O [Compound 6h, 3-(3′,5′-di-O-acetyl-2′-deoxy-β-D-ribofuranosyl)-6-(4-methylphenyl)-5-((4-methylphenyl)ethynyl)-2,3-dihydrofuro[2,3-d]pyrimidin-2-one]	≤ 1
CCCCCc1ccc(-c2oc3nc(=O)n([C@H]4C[C@H](OC(C)=O)[C@@H](COC(C)=O)O4)cc3c2C#CCCO)cc1 [Compound 7b, 3-(3′,5′-di-O-acetyl-2′-deoxy-β-D-ribofuranosyl)-5-(4-hydroxybut-1-yn-1-yl)-6-(4-pentylphenyl)-2,3-dihydrofuro[2,3-d]pyrimidin-2-one]	≤ 1
